Measured values from PMC10124032, “Toosendanin targeting eEF2 impedes Topoisomerase I & II protein translation to suppress esophageal squamous cell carcinoma growth” (Journal of Experimental & Clinical Cancer Research : CR, 2023).
pKd: −log10 of the molar value.

Assays:
[1] = target: T1, eEF2 (eukaryotic translational elongation factor 2) (Homo sapiens, UniProt P13639); experiment: SPR (Biacore T200); type: binding; set-up: eEF2 protein immobilized on a CM5 chip
[2] = target: T1, eEF2 (eukaryotic translational elongation factor 2); experiment: ITC (KD […]); also SPR (KD […]), CETSA in KYSE510 and […] T cells, GTPase-Glo inhibition of purified eEF2; type: binding; set-up: eEF2-3 × Flag purified from 293 T cells

Row | pKd [1] | Compound | pKd [2]
1 | 7.27 | O=C(NCCN1CCCC1)c1cc(-c2ccc(CN3CCOCC3)cc2)nc2ccc(F)cc12 [DDD107498] | 
2 |  | CC(=O)O[C@@H]1C[C@H](O)[C@@]23CO[C@@H](O)[C@]1(C)[C@@H]2C[C@@H](O)[C@]1(C)[C@@H]3C(=O)[C@H](OC(C)=O)[C@@]2(C)[C@H](c3ccoc3)C[C@H]3O[C@]321 [TSN, Toosendanin] | ~7.78
